Where “and” joins values, the source holds several entries; their conditions need not be identical. Identical values can stand only once.
Tests used:
[1] = molecular target: SNAP-tagged human dopamine D2L (Homo sapiens, UniProt P14416); experiment: Tag-lite PPHT-red competition kinetic binding (HTRF); conditions: PPHT-red tracer, Tag-lite
[2] = molecular target: T1, D2LR (Homo sapiens, UniProt P14416); experiment: β-Arrestin-2 recruitment (BRET); assay type: cell-based; set-up: expressed in transfected cells
T1 sequence (P14416 whole entry): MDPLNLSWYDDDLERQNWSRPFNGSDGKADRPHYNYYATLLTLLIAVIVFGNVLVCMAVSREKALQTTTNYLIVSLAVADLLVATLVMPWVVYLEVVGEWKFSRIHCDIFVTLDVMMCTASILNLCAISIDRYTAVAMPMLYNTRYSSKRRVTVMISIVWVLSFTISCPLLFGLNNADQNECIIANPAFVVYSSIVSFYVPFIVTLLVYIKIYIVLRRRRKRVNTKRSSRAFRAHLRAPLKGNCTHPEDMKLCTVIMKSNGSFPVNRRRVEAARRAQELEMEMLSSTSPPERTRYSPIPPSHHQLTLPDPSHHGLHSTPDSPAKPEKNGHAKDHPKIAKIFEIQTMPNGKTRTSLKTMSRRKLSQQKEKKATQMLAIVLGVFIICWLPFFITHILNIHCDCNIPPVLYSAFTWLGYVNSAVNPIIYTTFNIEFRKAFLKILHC
Experimental: β-Arrestin-2 recruitment. […] To assess β-arrestin-2 recruitment to the D2LR, the cells were transfected with 1 μg Rluc8-tagged D2LR, 4 μg YFP–β-arrestin-2 and 2 μg GRK2. […] The cells were incubated with Coelenterazine (Promega) at a final concentration of 5 μM for 5 min, followed by stimulation with the agonists for an additional 5 min before the BRET readings were captured.

[3] = molecular target: T1, D2LR; experiment: GαoB G protein activation (BRET); assay type: cell-based; set-up: expressed in transfected cells; conditions: for Emax: relative to the maximal response of ropinirole;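 on all read-outs here: Flp-In-CHO cells stably expressing D2LR, transiently transfected, agonist-stimulated in HBSS at 37 °C, net BRET read after coelenterazine, vehicle control subtracted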
Experimental: G protein activation. Flp-In-CHO cells stably expressing the D2LR were seeded at a density of 2,000,000 cells per 10-cm dish and were transfected the following day using polyethylenimine as the transfection reagent. […] Twenty-four hours after transfection, the cells were plated into 96-well CulturPlates (PerkinElmer) and grown overnight. The cells were equilibrated in Hank's balanced salt solution at 37 °C before starting the experiment. The cells were stimulated with the agonists for the indicated timeframes when the BRET readings were captured. Coelenterazine (Promega) was added at a final concentration of 5 μM at least 3 min before measurement. […] Net BRET was determined by subtraction of the vehicle control from the agonist-induced response.

[4] = molecular target: T1, D2LR; experiment: Inhibition of forskolin-induced cAMP production (BRET CAMYEL biosensor); conditions: for EC50: pEC50 cAMP; for Emax: relative to the maximal response of ropinirole; for Inhibition of cAMP production measured using a CAMYEL BRET biosensor, Net BRET: single experiments n = 1, 2, 3
Experimental: Flp-In-CHO cells stably expressing the D2LR were seeded at a density of 2,000,000 cells per 10-cm dish and were transfected the following day using polyethylenimine as the transfection reagent. The cells were transfected with 3 μg CAMYEL, to allow the detection of cAMP levels within the cells. Twenty-four hours after transfection, the cells were plated into 96-well CulturPlates (PerkinElmer) and grown overnight. The cells were equilibrated in Hank's balanced salt solution at 37 °C (or 25 °C when indicated) before starting the experiment. The cells were co-stimulated with the agonists and 10 μM forskolin for the indicated timeframes when the BRET readings were captured. Coelenterazine (Promega) was added at a final concentration of 5 μM at least 3 min before measurement. […] Net BRET was determined by subtraction of the vehicle control co-added with 10 μM forskolin.

Sequence of SNAP-tagged human dopamine D2L (P14416 whole entry): as above

## CCCN(CCC)CCc1cccc2c1CC(=O)N2 [Ropinirole, ropinirole]
[1]; 100 μM GppNHp, 37 °C, read-out: koff (converted)
  koff: 0.0433 s⁻¹
[1]; read-out: pKd (affinity determined from kinetic parameters) (converted)
  Kd: 1860 nM
[2]
  Log(τ/KA) β-arrestin2: 6.48 ± 0.15
  ΔLog(τ/KA) β-arrestin2: 0.14 ± 0.20
[3]
  Log(τ/KA) GαoB activation: 7.08 ± 0.08
  pEC50 Gao: 7.33
  ΔLog(τ/KA) GαoB activation: -0.16 ± 0.11
[3]; 2 min
  EC50: 107 nM
  Emax: 100%
[3]; 5 min
  EC50: 95.5 nM
  Emax: 100%
[3]; 10 min
  EC50: 67.6 nM
  Emax: 100%
[3]; 15 min
  Emax: 100%
[3]; 30 min
  EC50: 30.9 nM
  Emax: 100%
[3]; 45 min
  EC50: 41.7 nM
  Emax: 100%
[3]; 60 min
  EC50: 51.3 nM
  Emax: 100%
[3]; 75 min
  EC50: 39.8 nM
  Emax: 100%
[3]; 90 min
  EC50: 43.7 nM
  Emax: 100%
[3]; time points from 2 to 90 min
  change in potency over time in the GαoB activation assay: no change in potency
[4]
  Log(τ/KA) cAMP: 7.67 ± 0.04
  ΔLog(τ/KA) cAMP: -0.39 ± 0.06
[4]; 2 min
  EC50: 9.55 nM
[4]; 5 min
  EC50: 22.4 nM
[4]; 10 min
  EC50: 41.7 nM
[4]; 15 min
  EC50: 42.7 nM
[4]; 30 min
  EC50: 34.7 nM
[4]; 45 min
  EC50: 97.7 nM
[4]; 60 min
  EC50: 186 nM
[4]; 75 min
  EC50: 107 nM
[4]; 90 min
  EC50: 174 nM
[4]; read-out: Emax cAMP, 2 min
  Emax: 100%
[4]; read-out: Emax cAMP, 5 min
  Emax: 100%
[4]; read-out: Emax cAMP, 10 min
  Emax: 100%
[4]; read-out: Emax cAMP, 15 min
  Emax: 100%
[4]; read-out: Emax cAMP, 30 min
  Emax: 100%
[4]; read-out: Emax cAMP, 45 min
  Emax: 100%
[4]; read-out: Emax cAMP, 60 min
  Emax: 100%
[4]; read-out: Emax cAMP, 75 min
  Emax: 100%
[4]; read-out: Emax cAMP, 90 min
  Emax: 100%
[4]; time 2.21667 mins
  Inhibition of cAMP production measured using a CAMYEL BRET biosensor, Net BRET: 0.139 and 0.1472 and 0.1432
[4]; time 2.58333 mins
  Inhibition of cAMP production measured using a CAMYEL BRET biosensor, Net BRET: 0.1633 and 0.1578 and 0.1547
[4]; time 2.95 mins
  Inhibition of cAMP production measured using a CAMYEL BRET biosensor, Net BRET: 0.1708 and 0.1681 and 0.157
[4]; time 3.31667 mins
  Inhibition of cAMP production measured using a CAMYEL BRET biosensor, Net BRET: 0.1659 and 0.1812 and 0.1714
[4]; time 3.68333 mins
  Inhibition of cAMP production measured using a CAMYEL BRET biosensor, Net BRET: 0.1811 and 0.1789 and 0.1805
[4]; time 4.05 mins
  Inhibition of cAMP production measured using a CAMYEL BRET biosensor, Net BRET: 0.191 and 0.1937 and 0.1853
[4]; time 4.41667 mins
  Inhibition of cAMP production measured using a CAMYEL BRET biosensor, Net BRET: 0.1979 and 0.1996 and 0.185
[4]; time 4.78333 mins
  Inhibition of cAMP production measured using a CAMYEL BRET biosensor, Net BRET: 0.2031 and 0.2011 and 0.1899
[4]; time 5.15 mins
  Inhibition of cAMP production measured using a CAMYEL BRET biosensor, Net BRET: 0.2133 and 0.1934 and 0.1923
[4]; time 5.51667 mins
  Inhibition of cAMP production measured using a CAMYEL BRET biosensor, Net BRET: 0.202 and 0.1988 and 0.1873
[4]; time 5.88333 mins
  Inhibition of cAMP production measured using a CAMYEL BRET biosensor, Net BRET: 0.214 and 0.1997 and 0.2002
[4]; time 6.25 mins
  Inhibition of cAMP production measured using a CAMYEL BRET biosensor, Net BRET: 0.2138 and 0.204 and 0.1926
[4]; time 6.61667 mins
  Inhibition of cAMP production measured using a CAMYEL BRET biosensor, Net BRET: 0.2113 and 0.1972 and 0.1923
[4]; time 6.98333 mins
  Inhibition of cAMP production measured using a CAMYEL BRET biosensor, Net BRET: 0.2032 and 0.2012 and 0.1937
[4]; time 7.35 mins
  Inhibition of cAMP production measured using a CAMYEL BRET biosensor, Net BRET: 0.2141 and 0.1963 and 0.1945
[4]; time 7.71667 mins
  Inhibition of cAMP production measured using a CAMYEL BRET biosensor, Net BRET: 0.2104 and 0.2011 and 0.1956
[4]; time 8.08333 mins
  Inhibition of cAMP production measured using a CAMYEL BRET biosensor, Net BRET: 0.2099 and 0.2149 and 0.1931
[4]; time 8.45 mins
  Inhibition of cAMP production measured using a CAMYEL BRET biosensor, Net BRET: 0.2126 and 0.2072 and 0.1885
[4]; time 8.81667 mins
  Inhibition of cAMP production measured using a CAMYEL BRET biosensor, Net BRET: 0.2189 and 0.2083 and 0.199
[4]; time 9.18333 mins
  Inhibition of cAMP production measured using a CAMYEL BRET biosensor, Net BRET: 0.2207 and 0.2105 and 0.1943
[4]; time 9.55 mins
  Inhibition of cAMP production measured using a CAMYEL BRET biosensor, Net BRET: 0.212 and 0.2054 and 0.2079
[4]; time 9.91667 mins
  Inhibition of cAMP production measured using a CAMYEL BRET biosensor, Net BRET: 0.2149 and 0.2049 and 0.2075
[4]; time 10.2833 mins
  Inhibition of cAMP production measured using a CAMYEL BRET biosensor, Net BRET: 0.2152 and 0.2111 and 0.2029
[4]; time 10.65 mins
  Inhibition of cAMP production measured using a CAMYEL BRET biosensor, Net BRET: 0.2279 and 0.2163 and 0.2038
[4]; time 11.0167 mins
  Inhibition of cAMP production measured using a CAMYEL BRET biosensor, Net BRET: 0.2157 and 0.2032 and 0.2052
[4]; time 11.3833 mins
  Inhibition of cAMP production measured using a CAMYEL BRET biosensor, Net BRET: 0.2205 and 0.2041 and 0.2034
[4]; time 11.75 mins
  Inhibition of cAMP production measured using a CAMYEL BRET biosensor, Net BRET: 0.2254 and 0.2085 and 0.1983
[4]; time 12.1167 mins
  Inhibition of cAMP production measured using a CAMYEL BRET biosensor, Net BRET: 0.2217 and 0.2066 and 0.2006
[4]; time 12.4833 mins
  Inhibition of cAMP production measured using a CAMYEL BRET biosensor, Net BRET: 0.2324 and 0.2048 and 0.2074
[4]; time 12.85 mins
  Inhibition of cAMP production measured using a CAMYEL BRET biosensor, Net BRET: 0.2281 and 0.2112 and 0.2008
[4]; time 13.2167 mins
  Inhibition of cAMP production measured using a CAMYEL BRET biosensor, Net BRET: 0.2271 and 0.2125 and 0.2083
[4]; time 13.5833 mins
  Inhibition of cAMP production measured using a CAMYEL BRET biosensor, Net BRET: 0.2211 and 0.208 and 0.2059
[4]; time 13.95 mins
  Inhibition of cAMP production measured using a CAMYEL BRET biosensor, Net BRET: 0.2209 and 0.2042 and 0.208
[4]; time 14.3167 mins
  Inhibition of cAMP production measured using a CAMYEL BRET biosensor, Net BRET: 0.2319

From article PMC4770093, “The role of kinetic context in apparent biased agonism at GPCRs” (Nature Communications, 2016)
